Format in all cases: biochemical
The target in test [1] is 320 wild-type protein kinases (Homo sapiens, UniProt P17948). The following applies: kinase VEGF-R1, singlicate. The text has this: (§1) Table S4. Profiling of two compounds at two concentrations against 320 wild-type protein kinases; singlicate measurement; Residual activities (% of control).
In test [2] the target is T1, 320 wild-type protein kinases (Homo sapiens, UniProt P45985).
T1 sequence (P45985 1-399): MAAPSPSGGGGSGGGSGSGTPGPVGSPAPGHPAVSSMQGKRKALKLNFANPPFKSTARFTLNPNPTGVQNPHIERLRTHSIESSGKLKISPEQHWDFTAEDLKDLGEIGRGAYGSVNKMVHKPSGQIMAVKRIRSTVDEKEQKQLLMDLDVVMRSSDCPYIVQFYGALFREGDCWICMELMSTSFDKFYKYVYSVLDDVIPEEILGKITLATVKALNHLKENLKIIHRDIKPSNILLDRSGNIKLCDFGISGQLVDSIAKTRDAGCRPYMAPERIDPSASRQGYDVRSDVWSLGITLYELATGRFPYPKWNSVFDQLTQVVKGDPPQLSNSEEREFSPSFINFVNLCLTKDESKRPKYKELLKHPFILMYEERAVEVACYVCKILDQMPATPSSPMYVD
The following applies: singlicate.
Description: as §1

For test [3], the target named is 320 wild-type protein kinases (Homo sapiens, UniProt P49760). The following applies: singlicate.
320 wild-type protein kinases (Homo sapiens, UniProt P49760), sequence (P49760 whole entry): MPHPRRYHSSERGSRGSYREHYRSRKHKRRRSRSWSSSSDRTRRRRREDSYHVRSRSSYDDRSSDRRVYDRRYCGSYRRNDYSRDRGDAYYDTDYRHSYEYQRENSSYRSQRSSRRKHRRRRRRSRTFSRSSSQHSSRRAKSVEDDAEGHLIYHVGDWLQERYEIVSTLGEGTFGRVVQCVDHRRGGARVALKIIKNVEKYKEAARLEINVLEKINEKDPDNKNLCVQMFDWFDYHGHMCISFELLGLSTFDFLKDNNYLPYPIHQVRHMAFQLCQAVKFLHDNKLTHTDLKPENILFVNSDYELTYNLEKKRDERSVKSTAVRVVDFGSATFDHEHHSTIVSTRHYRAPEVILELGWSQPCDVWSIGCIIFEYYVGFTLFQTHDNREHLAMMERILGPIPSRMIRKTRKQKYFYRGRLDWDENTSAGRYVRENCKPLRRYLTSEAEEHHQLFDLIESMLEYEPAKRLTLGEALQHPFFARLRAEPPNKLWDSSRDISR
Description: as §1

Test [4] deals with 320 wild-type protein kinases (Homo sapiens, UniProt P49761). The following applies: singlicate.
320 wild-type protein kinases (Homo sapiens, UniProt P49761), sequence (P49761 whole entry): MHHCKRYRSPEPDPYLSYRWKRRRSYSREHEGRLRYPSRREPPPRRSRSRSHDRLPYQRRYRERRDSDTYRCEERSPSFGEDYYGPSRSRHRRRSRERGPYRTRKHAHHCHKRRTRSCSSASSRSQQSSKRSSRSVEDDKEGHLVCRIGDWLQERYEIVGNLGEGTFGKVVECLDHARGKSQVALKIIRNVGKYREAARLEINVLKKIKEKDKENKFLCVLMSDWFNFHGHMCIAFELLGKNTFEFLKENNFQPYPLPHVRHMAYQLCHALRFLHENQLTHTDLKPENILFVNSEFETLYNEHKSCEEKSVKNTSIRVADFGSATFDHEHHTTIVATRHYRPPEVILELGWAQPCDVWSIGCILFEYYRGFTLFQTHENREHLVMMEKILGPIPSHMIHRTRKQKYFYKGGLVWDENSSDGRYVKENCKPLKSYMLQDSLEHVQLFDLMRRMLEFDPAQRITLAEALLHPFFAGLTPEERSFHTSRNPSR
Description: as §1

Test [5] addresses T2, 320 wild-type protein kinases (Homo sapiens, UniProt P54760).
T2 sequence (P54760 16-987): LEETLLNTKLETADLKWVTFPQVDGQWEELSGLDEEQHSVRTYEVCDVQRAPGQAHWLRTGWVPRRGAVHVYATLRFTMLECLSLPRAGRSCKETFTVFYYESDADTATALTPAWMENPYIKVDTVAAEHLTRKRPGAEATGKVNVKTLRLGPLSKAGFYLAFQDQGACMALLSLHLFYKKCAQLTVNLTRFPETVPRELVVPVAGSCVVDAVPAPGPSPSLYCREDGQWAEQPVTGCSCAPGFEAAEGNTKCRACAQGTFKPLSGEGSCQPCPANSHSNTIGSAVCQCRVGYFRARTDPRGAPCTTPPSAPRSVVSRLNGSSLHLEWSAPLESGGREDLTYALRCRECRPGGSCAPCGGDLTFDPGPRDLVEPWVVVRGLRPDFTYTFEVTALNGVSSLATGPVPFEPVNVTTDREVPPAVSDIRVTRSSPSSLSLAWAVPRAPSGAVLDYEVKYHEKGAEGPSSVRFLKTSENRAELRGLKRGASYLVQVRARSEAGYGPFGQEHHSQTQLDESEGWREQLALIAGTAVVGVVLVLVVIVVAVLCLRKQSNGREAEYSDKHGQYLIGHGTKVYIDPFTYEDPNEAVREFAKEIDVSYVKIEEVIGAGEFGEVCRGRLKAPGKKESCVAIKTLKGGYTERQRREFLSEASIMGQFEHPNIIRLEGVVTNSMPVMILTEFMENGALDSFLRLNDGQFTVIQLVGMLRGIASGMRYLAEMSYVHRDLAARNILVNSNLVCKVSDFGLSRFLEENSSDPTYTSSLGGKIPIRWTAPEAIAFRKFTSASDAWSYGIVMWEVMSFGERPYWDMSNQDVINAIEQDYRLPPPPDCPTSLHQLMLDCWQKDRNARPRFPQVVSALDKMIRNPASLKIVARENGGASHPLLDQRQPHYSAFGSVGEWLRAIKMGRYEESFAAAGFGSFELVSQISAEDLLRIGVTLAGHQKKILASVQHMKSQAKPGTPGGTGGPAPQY
Particulars: singlicate.
Description: as §1

Test [6] addresses 320 wild-type protein kinases (Homo sapiens, UniProt Q13153). Particulars: singlicate.
Description: as §1

In test [7] the target is 320 wild-type protein kinases (Homo sapiens, UniProt Q13464). Particulars: kinase ROCK1, singlicate.
320 wild-type protein kinases (Homo sapiens, UniProt Q13464), sequence (Q13464 whole entry): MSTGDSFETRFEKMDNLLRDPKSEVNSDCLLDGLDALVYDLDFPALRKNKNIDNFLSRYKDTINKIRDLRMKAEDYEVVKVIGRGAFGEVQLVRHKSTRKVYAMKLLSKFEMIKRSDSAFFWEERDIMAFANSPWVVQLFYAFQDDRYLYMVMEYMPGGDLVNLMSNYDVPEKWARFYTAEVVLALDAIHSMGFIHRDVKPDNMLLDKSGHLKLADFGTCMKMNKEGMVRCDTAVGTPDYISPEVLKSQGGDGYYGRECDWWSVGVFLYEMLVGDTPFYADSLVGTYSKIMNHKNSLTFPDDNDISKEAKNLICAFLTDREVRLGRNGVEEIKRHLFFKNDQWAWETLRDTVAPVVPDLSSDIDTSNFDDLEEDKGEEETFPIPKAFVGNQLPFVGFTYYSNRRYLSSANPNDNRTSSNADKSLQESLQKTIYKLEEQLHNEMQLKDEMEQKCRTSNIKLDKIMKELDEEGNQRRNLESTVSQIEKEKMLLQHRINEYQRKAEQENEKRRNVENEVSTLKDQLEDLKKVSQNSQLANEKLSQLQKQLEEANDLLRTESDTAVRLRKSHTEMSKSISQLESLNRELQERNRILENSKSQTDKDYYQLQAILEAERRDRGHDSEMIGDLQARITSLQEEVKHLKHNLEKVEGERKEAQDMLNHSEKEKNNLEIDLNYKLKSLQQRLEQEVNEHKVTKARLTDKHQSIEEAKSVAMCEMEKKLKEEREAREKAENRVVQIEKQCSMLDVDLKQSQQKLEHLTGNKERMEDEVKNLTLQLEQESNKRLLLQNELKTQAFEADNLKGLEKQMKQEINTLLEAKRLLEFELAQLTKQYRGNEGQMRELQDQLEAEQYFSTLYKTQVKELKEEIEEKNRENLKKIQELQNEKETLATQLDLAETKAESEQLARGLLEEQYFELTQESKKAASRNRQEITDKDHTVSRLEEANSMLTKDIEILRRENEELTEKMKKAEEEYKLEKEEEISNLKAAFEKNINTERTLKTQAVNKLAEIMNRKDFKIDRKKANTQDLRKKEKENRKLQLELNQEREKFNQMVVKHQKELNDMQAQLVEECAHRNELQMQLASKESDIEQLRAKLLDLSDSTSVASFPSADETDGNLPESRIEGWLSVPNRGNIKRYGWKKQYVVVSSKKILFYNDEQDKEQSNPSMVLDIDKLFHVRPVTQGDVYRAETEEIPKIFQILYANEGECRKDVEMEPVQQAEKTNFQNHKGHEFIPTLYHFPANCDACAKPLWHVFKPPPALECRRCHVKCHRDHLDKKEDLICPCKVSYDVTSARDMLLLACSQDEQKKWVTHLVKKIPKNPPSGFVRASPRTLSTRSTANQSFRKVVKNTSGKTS
Description: as §1

The target of test [8] is T3, 320 wild-type protein kinases (Homo sapiens, UniProt Q13976).
T3 sequence (Q13976 1-671): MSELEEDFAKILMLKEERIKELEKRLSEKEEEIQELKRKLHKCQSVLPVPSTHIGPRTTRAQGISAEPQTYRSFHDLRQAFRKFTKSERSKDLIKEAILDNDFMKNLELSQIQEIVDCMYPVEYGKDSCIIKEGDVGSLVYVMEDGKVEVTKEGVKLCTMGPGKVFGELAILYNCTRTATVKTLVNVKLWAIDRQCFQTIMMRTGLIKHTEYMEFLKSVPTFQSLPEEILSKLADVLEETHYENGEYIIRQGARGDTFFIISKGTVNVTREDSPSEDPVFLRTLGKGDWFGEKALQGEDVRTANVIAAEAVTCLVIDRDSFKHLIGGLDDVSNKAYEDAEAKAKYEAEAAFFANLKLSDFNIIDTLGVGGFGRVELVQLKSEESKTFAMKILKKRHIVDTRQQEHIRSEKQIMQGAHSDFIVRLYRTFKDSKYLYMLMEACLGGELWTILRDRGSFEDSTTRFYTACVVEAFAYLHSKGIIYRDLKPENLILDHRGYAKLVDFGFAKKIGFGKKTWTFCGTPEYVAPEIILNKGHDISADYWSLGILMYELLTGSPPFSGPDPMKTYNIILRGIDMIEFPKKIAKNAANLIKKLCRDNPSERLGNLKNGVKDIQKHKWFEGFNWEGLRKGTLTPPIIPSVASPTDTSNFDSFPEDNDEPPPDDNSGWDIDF
The following applies: kinase PRKG1, singlicate.
Description: as §1

Test [9] addresses 320 wild-type protein kinases (Homo sapiens, UniProt Q9HC98). Particulars: singlicate.
Description: as §1

The target in test [10] is 320 wild-type protein kinases (Homo sapiens, UniProt Q9UK32). The following applies: kinase RPS6KA6, singlicate.
320 wild-type protein kinases (Homo sapiens, UniProt Q9UK32), sequence (Q9UK32 whole entry): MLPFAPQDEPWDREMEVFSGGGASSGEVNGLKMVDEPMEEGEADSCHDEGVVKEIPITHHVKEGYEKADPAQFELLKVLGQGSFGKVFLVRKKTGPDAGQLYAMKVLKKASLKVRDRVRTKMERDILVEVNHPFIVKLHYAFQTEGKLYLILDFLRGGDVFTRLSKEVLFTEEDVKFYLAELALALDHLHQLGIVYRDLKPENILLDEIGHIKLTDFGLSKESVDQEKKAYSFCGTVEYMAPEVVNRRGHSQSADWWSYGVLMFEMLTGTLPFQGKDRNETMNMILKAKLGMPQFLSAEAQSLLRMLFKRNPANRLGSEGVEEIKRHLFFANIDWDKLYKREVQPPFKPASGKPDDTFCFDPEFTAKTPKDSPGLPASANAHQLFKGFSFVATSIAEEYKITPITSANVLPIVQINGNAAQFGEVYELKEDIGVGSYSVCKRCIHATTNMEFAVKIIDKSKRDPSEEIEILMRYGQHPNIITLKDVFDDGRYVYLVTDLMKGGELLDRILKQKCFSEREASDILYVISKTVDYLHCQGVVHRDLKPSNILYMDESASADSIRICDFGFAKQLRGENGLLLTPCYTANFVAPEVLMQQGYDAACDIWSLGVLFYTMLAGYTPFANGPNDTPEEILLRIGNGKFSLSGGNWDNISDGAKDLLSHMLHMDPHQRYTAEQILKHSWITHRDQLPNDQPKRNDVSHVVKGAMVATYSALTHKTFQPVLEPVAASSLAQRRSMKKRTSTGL
Description: as §1

Structures are written as SMILES. Where two headings read alike, the source gives them in different places.

320 wild-type protein kinases (Homo sapiens, UniProt Q9HC98), sequence (Q9HC98 whole entry): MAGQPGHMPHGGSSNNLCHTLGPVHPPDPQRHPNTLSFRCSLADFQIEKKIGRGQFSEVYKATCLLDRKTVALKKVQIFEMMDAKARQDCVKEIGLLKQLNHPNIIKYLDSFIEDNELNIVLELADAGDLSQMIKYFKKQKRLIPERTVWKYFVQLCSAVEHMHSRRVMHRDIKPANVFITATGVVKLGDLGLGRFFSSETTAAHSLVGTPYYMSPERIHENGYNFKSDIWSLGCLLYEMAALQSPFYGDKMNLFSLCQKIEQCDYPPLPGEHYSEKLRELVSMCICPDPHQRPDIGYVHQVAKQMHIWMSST
320 wild-type protein kinases (Homo sapiens, UniProt P17948), sequence (P17948 27-1338): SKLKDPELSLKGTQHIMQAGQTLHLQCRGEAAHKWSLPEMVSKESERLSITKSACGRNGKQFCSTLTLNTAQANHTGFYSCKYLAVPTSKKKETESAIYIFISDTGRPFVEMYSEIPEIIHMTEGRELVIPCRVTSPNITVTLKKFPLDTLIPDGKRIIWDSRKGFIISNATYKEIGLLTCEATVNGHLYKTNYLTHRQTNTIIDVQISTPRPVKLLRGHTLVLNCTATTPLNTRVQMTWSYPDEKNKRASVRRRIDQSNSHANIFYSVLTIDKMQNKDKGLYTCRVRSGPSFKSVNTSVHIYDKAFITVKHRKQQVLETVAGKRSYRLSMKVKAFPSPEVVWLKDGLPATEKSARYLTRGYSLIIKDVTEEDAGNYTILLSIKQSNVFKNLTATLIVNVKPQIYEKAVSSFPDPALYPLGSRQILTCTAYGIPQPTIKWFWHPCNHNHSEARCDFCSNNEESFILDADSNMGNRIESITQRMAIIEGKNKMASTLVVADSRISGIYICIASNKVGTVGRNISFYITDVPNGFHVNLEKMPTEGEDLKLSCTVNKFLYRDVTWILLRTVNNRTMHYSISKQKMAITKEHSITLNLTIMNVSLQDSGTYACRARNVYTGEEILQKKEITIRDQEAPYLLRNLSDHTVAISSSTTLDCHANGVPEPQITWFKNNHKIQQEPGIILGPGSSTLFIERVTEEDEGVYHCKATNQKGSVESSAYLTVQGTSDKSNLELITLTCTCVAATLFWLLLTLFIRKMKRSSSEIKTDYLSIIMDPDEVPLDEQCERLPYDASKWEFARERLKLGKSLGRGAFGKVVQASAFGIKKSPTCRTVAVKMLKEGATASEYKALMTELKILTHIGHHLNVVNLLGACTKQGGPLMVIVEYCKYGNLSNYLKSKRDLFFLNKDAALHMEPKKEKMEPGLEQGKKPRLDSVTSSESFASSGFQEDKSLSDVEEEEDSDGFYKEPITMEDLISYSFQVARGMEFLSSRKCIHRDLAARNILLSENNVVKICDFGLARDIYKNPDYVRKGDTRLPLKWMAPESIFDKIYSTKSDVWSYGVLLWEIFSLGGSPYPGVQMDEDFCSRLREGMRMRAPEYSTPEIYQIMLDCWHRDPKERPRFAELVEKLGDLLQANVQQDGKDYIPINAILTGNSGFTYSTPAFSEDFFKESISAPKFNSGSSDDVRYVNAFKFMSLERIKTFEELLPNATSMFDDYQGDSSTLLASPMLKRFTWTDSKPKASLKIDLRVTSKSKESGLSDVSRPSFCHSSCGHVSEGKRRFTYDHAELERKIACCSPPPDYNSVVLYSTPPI

Take `C#Cc1cc(Nc2ncnc3cc(I)ccc23)ccc1Cl` [Compound 41]: the “Residual activity, VEGF-R1” value in test [1] (assay conc. 1.0E-06 M) is on record as 113 % of control; in test [1] (assay conc. 1.0E-07 M) it was 92 % of control. Besides, the Residual activity in [2] (MKK4, 1.0E-06 M) is 93 % of control; in [2] (MKK4, 1.0E-07 M), 87 % of control; in [3] (CLK2, 1.0E-06 M), 106 % of control; in [3] (CLK2, 1.0E-07 M), 122 % of control; in [4] (CLK3, 1.0E-06 M), 128 % of control; in [4] (CLK3, 1.0E-07 M), 146 % of control. Also, the Residual activity is 92 % of control in [5] (EPHB4, 1.0E-06 M); 89 % of control in [5] (EPHB4, 1.0E-07 M); 92 % of control in test [6] (PAK1, 1.0E-06 M); 87 % of control in test [6] (PAK1, 1.0E-07 M); 92 % of control in [9] (NEK6, 1.0E-06 M); 84 % of control in test [9] (NEK6, 1.0E-07 M). The “Residual activity, ROCK1” value in test [7] (assay conc. 1.0E-06 M) is given as 91 % of control; in test [7] (assay conc. 1.0E-07 M) it was 84 % of control. For the same compound, the “Residual activity, PRKG1” value in test [8] (assay conc. 1.0E-06 M) is 72 % of control; in [8] (assay conc. 1.0E-07 M), 88 % of control. In addition, the “Residual activity, RPS6KA6” value in test [10] (assay conc. 1.0E-06 M) was 94 % of control; in [10] (assay conc. 1.0E-07 M) it was 103 % of control.

Turning to `C#Cc1cc(Nc2ncnc3cc(OC)c(OC)cc23)ccc1Cl` [Compound 45], the “Residual activity, VEGF-R1” value in test [1] (assay conc. 1.0E-06 M) is listed as 85 % of control; in test [1] (assay conc. 1.0E-07 M), 119 % of control. Also, the Residual activity is on record as 96 % of control in test [2] (MKK4, 1.0E-06 M); 88 % of control in test [2] (MKK4, 1.0E-07 M); 105 % of control in [3] (CLK2, 1.0E-06 M); 119 % of control in test [3] (CLK2, 1.0E-07 M); 133 % of control in test [4] (CLK3, 1.0E-06 M); 127 % of control in test [4] (CLK3, 1.0E-07 M). Moreover, the Residual activity in [5] (EPHB4, 1.0E-06 M) was 82 % of control; in [5] (EPHB4, 1.0E-07 M), 101 % of control; in [6] (PAK1, 1.0E-06 M), 95 % of control; in [6] (PAK1, 1.0E-07 M), 91 % of control; in test [9] (NEK6, 1.0E-06 M), 92 % of control; in test [9] (NEK6, 1.0E-07 M), 90 % of control. The results for the “Residual activity, ROCK1” value in test [7] (assay conc. 1.0E-06 M) and in test [7] (assay conc. 1.0E-07 M) were 83 % of control and 98 % of control, respectively. The “Residual activity, PRKG1” value in test [8] (assay conc. 1.0E-06 M) is listed as 101 % of control; in test [8] (assay conc. 1.0E-07 M), 106 % of control. Also, the “Residual activity, RPS6KA6” value is on record as 70 % of control in [10] (assay conc. 1.0E-06 M) and 93 % of control in [10] (assay conc. 1.0E-07 M).
